Values of other authors in patent publication US20050203299A1 (priority 2003, published 2005).

How the values were obtained:
[1] = prepared by recrystallization from ethanol or by heating aripiprazole hydrate at 80° C.; according to WO 03/26659
[2] = target: T1, serotonin 5-HT1A receptor (Homo sapiens, UniProt P08908)
T1 sequence (P08908 1-422): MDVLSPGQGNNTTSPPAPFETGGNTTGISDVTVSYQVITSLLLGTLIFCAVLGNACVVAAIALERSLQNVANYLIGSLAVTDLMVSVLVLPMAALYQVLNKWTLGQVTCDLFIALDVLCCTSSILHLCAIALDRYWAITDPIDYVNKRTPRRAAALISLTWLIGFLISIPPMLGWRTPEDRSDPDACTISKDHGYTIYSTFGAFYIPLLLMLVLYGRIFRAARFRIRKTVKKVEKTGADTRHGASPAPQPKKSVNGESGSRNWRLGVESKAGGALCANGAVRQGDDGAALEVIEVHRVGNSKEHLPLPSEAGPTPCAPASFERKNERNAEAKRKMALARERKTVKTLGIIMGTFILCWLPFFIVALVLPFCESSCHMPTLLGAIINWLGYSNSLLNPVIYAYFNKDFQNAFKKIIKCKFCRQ

[3] = test system: cholinergic muscarinic receptors
serotonin reuptake site = serotonin reuptake site (Homo sapiens, UniProt P31645)
Chain of serotonin reuptake site (P31645 whole entry): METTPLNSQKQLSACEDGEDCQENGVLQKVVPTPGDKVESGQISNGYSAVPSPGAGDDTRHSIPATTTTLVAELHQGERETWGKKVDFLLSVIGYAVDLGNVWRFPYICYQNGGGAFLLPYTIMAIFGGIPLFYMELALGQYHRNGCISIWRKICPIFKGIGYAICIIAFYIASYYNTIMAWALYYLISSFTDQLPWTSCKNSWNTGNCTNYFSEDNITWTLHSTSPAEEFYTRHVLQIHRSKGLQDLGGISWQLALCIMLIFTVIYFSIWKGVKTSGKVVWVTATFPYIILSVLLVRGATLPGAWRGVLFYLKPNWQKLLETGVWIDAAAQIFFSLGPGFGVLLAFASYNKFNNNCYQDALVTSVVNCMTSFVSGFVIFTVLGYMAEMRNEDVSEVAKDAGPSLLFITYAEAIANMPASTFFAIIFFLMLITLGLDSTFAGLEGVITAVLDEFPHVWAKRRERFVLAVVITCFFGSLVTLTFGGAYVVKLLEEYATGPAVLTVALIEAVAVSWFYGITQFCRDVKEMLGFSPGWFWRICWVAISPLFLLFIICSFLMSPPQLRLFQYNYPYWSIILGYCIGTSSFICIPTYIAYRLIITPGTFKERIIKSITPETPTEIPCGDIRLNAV

[4] = target: serotonin 5-HT2A receptor (Homo sapiens, UniProt P28223)
Chain of serotonin 5-HT2A receptor (P28223 whole entry): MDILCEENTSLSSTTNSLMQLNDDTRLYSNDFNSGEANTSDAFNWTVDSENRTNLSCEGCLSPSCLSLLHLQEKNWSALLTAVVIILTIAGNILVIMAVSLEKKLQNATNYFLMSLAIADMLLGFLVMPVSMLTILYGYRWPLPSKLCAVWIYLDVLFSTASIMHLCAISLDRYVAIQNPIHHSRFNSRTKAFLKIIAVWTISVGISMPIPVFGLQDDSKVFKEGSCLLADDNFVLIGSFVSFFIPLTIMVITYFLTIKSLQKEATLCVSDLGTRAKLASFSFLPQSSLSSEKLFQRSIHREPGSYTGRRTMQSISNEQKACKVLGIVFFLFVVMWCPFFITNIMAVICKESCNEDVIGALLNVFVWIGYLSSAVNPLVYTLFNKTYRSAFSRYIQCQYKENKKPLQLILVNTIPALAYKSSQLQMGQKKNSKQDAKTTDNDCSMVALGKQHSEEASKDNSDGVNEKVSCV

[5] = target: T2, serotonin 5-HT2C receptor (Homo sapiens, UniProt P28335)
T2 sequence (P28335 33-458): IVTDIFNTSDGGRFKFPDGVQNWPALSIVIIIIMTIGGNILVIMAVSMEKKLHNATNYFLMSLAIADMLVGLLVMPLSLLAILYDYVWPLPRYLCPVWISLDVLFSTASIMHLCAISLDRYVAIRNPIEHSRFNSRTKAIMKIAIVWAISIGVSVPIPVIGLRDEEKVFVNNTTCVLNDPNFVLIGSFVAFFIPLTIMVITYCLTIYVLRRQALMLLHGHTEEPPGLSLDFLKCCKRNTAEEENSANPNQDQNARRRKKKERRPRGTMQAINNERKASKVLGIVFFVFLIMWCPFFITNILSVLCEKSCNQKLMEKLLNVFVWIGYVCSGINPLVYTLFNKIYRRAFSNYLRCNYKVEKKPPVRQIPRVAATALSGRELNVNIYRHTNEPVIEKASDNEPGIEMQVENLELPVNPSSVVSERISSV

histamine H1 receptor = histamine H1 receptor (Homo sapiens, UniProt P35367)
Chain of histamine H1 receptor (P35367 whole entry): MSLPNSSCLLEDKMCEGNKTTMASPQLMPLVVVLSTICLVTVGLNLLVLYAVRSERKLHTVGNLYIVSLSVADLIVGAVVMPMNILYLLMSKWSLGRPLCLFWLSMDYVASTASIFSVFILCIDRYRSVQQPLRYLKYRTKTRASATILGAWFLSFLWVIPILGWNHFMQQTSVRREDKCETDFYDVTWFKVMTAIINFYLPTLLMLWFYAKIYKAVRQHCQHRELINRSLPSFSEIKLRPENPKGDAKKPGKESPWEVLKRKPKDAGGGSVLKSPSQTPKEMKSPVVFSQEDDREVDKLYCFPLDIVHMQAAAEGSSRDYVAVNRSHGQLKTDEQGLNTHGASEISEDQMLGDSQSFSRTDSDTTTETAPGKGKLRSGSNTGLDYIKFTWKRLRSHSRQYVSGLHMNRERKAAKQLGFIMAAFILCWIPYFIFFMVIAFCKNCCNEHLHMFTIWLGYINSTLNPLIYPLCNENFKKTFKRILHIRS

Row | SMILES | hygroscopicity [1] | affinity for serotonin 5-HT1A receptor [2] | affinity for cholinergic muscarinic receptors [3] | affinity for serotonin reuptake site (serotonin reuptake site) | affinity for serotonin 5-HT2A receptor [4] | affinity for serotonin 5-HT2C receptor [5] | affinity for histamine H1 receptor (histamine H1 receptor) | affinity for α1-adrenergic receptor (α1-adrenergic receptor)
1 | O=C1CCc2ccc(OCCCCN3CCN(c4cccc(Cl)c4Cl)CC3)cc2N1 [anhydride aripiprazole, aripiprazole] | significantly hygroscopic | – | – | – | – | – | – | –
2 | O=C1CCc2ccc(OCCCCN3CCN(c4cccc(Cl)c4Cl)CC3)cc2N1 [Aripiprazole] | – | high affinity | no appreciable affinity | moderate affinity | high affinity | moderate affinity | moderate affinity | moderate affinity
